One block for each molecule: values may come before it.
Columns and labels:
human CYP11B1 = human CYP11B1 (Homo sapiens (Human), UniProt P15538); experiment: G-402 cellular enzyme assay, human CYP11B1 (cortisol release, HTRF); format: cell-based; details: G-402 cells expressing human CYP11B1; 1 μM Deoxycortisol
Text: (§1) Herein we identified the use of the G-402 cell line as a host cell to ectopically express (transiently or stably) enzymes of the CYP11 family. Specifically we developed stable G-402 cells expressing ectopically human CYP11B1, human CYP11B2, human CYP11A1, cynmolgus CYP11B1 or cynomolgus CYP11B2 enzyme activity. Importantly the identified cell line G-402 expresses co-factors (adrenodoxin and adrenodoxin reductase) important for the activity of the CYP11 family and no relevant enzyme activity of the CYP11 family (in comparison to H295R cells) was detected in these cells. Therefore the G-402 cell line is uniquely suited as a host cell for the ectopic expression of enzymes from the CYP11 family. G-402 cells can be obtained from ATCC (CRL-1440) and were originally derived from a renal leiomyoblastoma.
(§2) The expression plasmids contains the ORF for either human/cyno CYP11B1 or CYP11B2 under the control of a suitable promoter (CMV-promoter) and a suitable resistance marker (neomycin). Using standard techniques the expression plasmid is transfected into G-402 cells and these cells are then selected for expressing the given resistance markers. Individual cell-clones are then selected and assessed for displaying the desired enzymatic activity using 11-Deoxycorticosterone (Cyp11B2) or 11-Deoxycortisol (Cyp11B1) as a substrate.
(§3) G-402 cells expressing CYP11 constructs were established as described above and maintained in McCoy's 5a Medium Modified, ATCC Catalog No. 30-2007 containing 10% FCS and 400 μg/ml G418 (Geneticin) at 37° C. under an atmosphere of 5% CO2/95% air. Cellular enzyme assays were performed in DMEM/F12 medium containing 2.5% charcoal treated FCS and appropriate concentration of substrate (0.3-10 uM 11-Deoxycorticosterone, 11-Deoxycortisol or Corticosterone). For assaying enzymatic activity, cells were plated onto 96 well plates and incubated for 16 h. An aliquot of the supernatant is then transferred and analyzed for the concentration of the expected product (Aldosterone for CYP11B2; Cortisol for CYP11B1). The concentrations of these steroids can be determined using HTRF assays from CisBio analyzing either Aldosterone or Cortisol.
(§4) Inhibition of the release of produced steroids can be used as a measure of the respective enzyme inhibition by test compounds added during the cellular enzyme assay. The dose dependent inhibition of enzymatic activity by a compound is calculated by means of plotting added inhibitor concentrations (x-axes) vs. measured steroid/product level (y-axes). The inhibition is then calculated by fitting the following 4-parameter sigmoidal function (Morgan-Mercer-Flodin (MMF) model) to the raw data points using the least squares method:
(§5) [formula] wherein, A is the maximum y value, B is the EC50 factor determined using XLFit, C is the minimum y value and D is the slope value.
(§6) EC50 values for compounds claimed herein were tested with the G402-based assay system described. Cyp11B2 enzyme activity was tested in presence of 1 μM Deoxycorticosterone and variable amounts of inhibitors; Cyp11B1 enzyme activity was tested in presence of 1 μM Deoxycortisol and variable amounts of inhibitors.

CYP11B2 = CYP11B2 (Homo sapiens (Human), UniProt P19099); experiment: G-402 cellular enzyme assay, human CYP11B2 (aldosterone release, HTRF); format: cell-based; details: G-402 cells expressing human CYP11B2; 1 μM Deoxycorticosterone
Text: as §1, §2, §3, §4, §5, §6

[1] = rat CKD model, cited from earlier work; for plasma aldosterone: FAD286 4 weeks of treatment, spironolactone 4 and 8 weeks; for angiotensin II and salt-stimulated PAI-1 mRNA expression: aorta and heart

human CYP11B1, sequence (P15538 25-503): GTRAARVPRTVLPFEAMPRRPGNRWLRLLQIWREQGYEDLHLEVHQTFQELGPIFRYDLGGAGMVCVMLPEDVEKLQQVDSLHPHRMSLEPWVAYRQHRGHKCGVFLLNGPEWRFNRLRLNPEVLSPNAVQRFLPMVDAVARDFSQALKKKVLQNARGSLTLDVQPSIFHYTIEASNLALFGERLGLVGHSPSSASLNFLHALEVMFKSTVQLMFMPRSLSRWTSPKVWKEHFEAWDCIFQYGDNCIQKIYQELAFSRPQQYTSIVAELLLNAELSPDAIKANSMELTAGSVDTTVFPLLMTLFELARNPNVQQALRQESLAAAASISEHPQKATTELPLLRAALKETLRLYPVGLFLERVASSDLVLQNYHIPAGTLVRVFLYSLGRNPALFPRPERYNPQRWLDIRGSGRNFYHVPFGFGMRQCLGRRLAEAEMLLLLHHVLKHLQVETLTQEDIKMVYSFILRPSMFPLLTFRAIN
CYP11B2, sequence (P19099 25-503): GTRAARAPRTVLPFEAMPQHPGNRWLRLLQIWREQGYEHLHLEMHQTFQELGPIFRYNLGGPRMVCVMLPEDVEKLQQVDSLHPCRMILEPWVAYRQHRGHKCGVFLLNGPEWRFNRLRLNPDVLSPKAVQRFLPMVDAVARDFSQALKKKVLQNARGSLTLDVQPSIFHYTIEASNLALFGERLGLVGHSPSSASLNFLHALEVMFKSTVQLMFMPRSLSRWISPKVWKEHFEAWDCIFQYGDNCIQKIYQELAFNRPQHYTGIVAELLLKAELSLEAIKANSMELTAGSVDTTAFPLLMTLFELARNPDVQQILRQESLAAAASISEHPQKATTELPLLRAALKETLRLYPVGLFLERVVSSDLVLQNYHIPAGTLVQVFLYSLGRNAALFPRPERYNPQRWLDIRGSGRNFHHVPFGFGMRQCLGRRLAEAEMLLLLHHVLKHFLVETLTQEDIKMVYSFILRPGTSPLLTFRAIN

SMILES: NC1CCc2cncc(-c3ccc(C(F)(F)F)c(F)c3)c21 (racemic) [Example 1, (rac)-4-(3-Fluoro-4-(trifluoromethyl)phenyl)-6,7-dihydro-5H-cyclopenta[c]pyridin-5-amine]
EC50 (human CYP11B1): 5.35 µM
EC50 (CYP11B2): 0.263 µM

SMILES: OC1CCc2cncc(-c3ccc(C(F)(F)F)c(F)c3)c21 (racemic) [Example 2, (rac)-4-(3-Fluoro-4-(trifluoromethyl)phenyl)-6,7-dihydro-5H-cyclopenta[c]pyridin-5-ol]
EC50 (human CYP11B1): 2.34 µM
EC50 (CYP11B2): 0.069 µM

SMILES: CC1(O)CCc2cncc(-c3ccc(C(F)(F)F)c(F)c3)c21 (racemic) [Example 3, (rac)-4-(3-Fluoro-4-(trifluoromethyl)phenyl)-5-methyl-6,7-dihydro-5H-cyclopenta[c]pyridin-5-ol]
EC50 (human CYP11B1): 2.34 µM
EC50 (CYP11B2): 0.045 µM

SMILES: OC1(c2ccccc2)CCc2cncc(-c3ccc(C(F)(F)F)c(F)c3)c21 (racemic) [Example 4, (rac)-4-(3-Fluoro-4-(trifluoromethyl)phenyl)-5-phenyl-6,7-dihydro-5H-cyclopenta[c]pyridin-5-ol]
EC50 (human CYP11B1): 1.96 µM
EC50 (CYP11B2): 0.05 µM

SMILES: OC1CCc2cncc(-c3ccc(C(F)(F)F)cc3F)c21 (racemic) [Example 5, (rac)-4-[2-Fluoro-4-(trifluoromethyl)phenyl]-6,7-dihydro-5H-cyclopenta[c]pyridin-5-ol]
EC50 (human CYP11B1): 3.33 µM
EC50 (CYP11B2): 0.133 µM

SMILES: CC1(O)CCc2cncc(-c3ccc(C(F)(F)F)cc3F)c21 (racemic) [Example 6, (rac)-4-[2-Fluoro-4-(trifluoromethyl)phenyl]-5-methyl-6,7-dihydrocyclopenta[c]pyridin-5-ol]
EC50 (human CYP11B1): > 30 µM
EC50 (CYP11B2): 0.739 µM

SMILES: CC(C)C1(O)CCc2cncc(-c3ccc(C(F)(F)F)cc3F)c21 (racemic) [Example 7, (rac)-4-[2-Fluoro-4-(trifluoromethyl)phenyl]-5-isopropyl-6,7-dihydrocyclopenta[c]pyridin-5-ol]
EC50 (human CYP11B1): 14.4 µM
EC50 (CYP11B2): 0.74 µM

SMILES: OC1(c2ccccc2)CCc2cncc(-c3ccc(C(F)(F)F)cc3F)c21 (racemic) [Example 8, (rac)-4-[2-Fluoro-4-(trifluoromethyl)phenyl]-5-phenyl-6,7-dihydrocyclopenta[c]pyridin-5-ol]
EC50 (human CYP11B1): 7.38 µM
EC50 (CYP11B2): 0.033 µM

SMILES: CCOC(=O)CC1CCc2cncc(-c3ccc(C(F)(F)F)c(F)c3)c21 (racemic) [Example 11, (rac)-Ethyl 2-[4-[3-fluoro-4-(trifluoromethyl)phenyl]-6,7-dihydro-5H-cyclopenta[c]pyridin-5-yl]acetate]
EC50 (human CYP11B1): 0.367 µM
EC50 (CYP11B2): 0.064 µM

SMILES: CNC(=O)CC1CCc2cncc(-c3ccc(C(F)(F)F)c(F)c3)c21 (racemic) [Example 12, (rac)-2-[4-[3-Fluoro-4-(trifluoromethyl)phenyl]-6,7-dihydro-5H-cyclopenta[c]pyridin-5-yl]-N-methyl-acetamide]
EC50 (human CYP11B1): 1.03 µM
EC50 (CYP11B2): 0.113 µM

SMILES: O=C(CC1CCc2cncc(-c3ccc(C(F)(F)F)c(F)c3)c21)NCC1CC1 (racemic) [Example 13, (rac)-N-(Cyclopropylmethyl)-2-[4-[3-fluoro-4-(trifluoromethyl)phenyl]-6,7-dihydro-5H-cyclopenta[c]pyridin-5-yl]acetamide]
EC50 (human CYP11B1): 1.15 µM
EC50 (CYP11B2): 0.06 µM

SMILES: CCCNC(=O)CC1CCc2cncc(-c3ccc(C(F)(F)F)c(F)c3)c21 (racemic) [Example 14, (rac)-2-[4-[3-Fluoro-4-(trifluoromethyl)phenyl]-6,7-dihydro-5H-cyclopenta[c]pyridin-5-yl]-N-propyl-acetamide]
EC50 (human CYP11B1): 2.6 µM
EC50 (CYP11B2): 1.53 µM

EC50 (human CYP11B1): > 30 µM
EC50 (CYP11B2): 0.832 µM
SMILES: O=C(CC1CCc2cncc(-c3ccc(C(F)(F)F)c(F)c3)c21)N1CCCCC1 (racemic) [Example 15, (rac)-2-[4-[3-Fluoro-4-(trifluoromethyl)phenyl]-6,7-dihydro-5H-cyclopenta[c]pyridin-5-yl]-1-(1-piperidyl)ethanone]

SMILES: O=C(CC1CCc2cncc(-c3ccc(C(F)(F)F)c(F)c3)c21)N1CCOCC1 (racemic) [Example 16, (rac)-2-[4-[3-Fluoro-4-(trifluoromethyl)phenyl]-6,7-dihydro-5H-cyclopenta[c]pyridin-5-yl]-1-morpholino-ethanone]
EC50 (human CYP11B1): 3.63 µM
EC50 (CYP11B2): 1.02 µM

SMILES: O=C(CC1CCc2cncc(-c3ccc(C(F)(F)F)c(F)c3)c21)Nc1ccon1 (racemic) [Example 17, (rac)-2-[4-[3-Fluoro-4-(trifluoromethyl)phenyl]-6,7-dihydro-5H-cyclopenta[c]pyridin-5-yl]-N-isoxazol-3-yl-acetamide]
EC50 (human CYP11B1): 0.311 µM
EC50 (CYP11B2): 0.1 µM

SMILES: O=C(CC1CCc2cncc(-c3ccc(C(F)(F)F)c(F)c3)c21)Nc1cc[nH]n1 (racemic) [Example 18, (rac)-2-[4-[3-Fluoro-4-(trifluoromethyl)phenyl]-6,7-dihydro-5H-cyclopenta[c]pyridin-5-yl-]-N-(1H-pyrazol-3-yl)acetamide]
EC50 (human CYP11B1): 0.282 µM
EC50 (CYP11B2): 0.597 µM

SMILES: O=C(CC1CCc2cncc(-c3ccc(C(F)(F)F)cc3F)c21)N1CCCC1 (racemic) [Example 19, (rac)-2-[4-[2-Fluoro-4-(trifluoromethyl)phenyl]-6,7-dihydro-5H-cyclopenta[c]pyridin-5-yl]-1-pyrrolidin-1-yl-ethanone]
EC50 (human CYP11B1): 8.47 µM
EC50 (CYP11B2): 0.442 µM

SMILES: CCN(C)C(=O)CC1CCc2cncc(-c3ccc(C(F)(F)F)cc3F)c21 (racemic) [Example 20, (rac)-N-Ethyl-2-[4-[2-fluoro-4-(trifluoromethyl)phenyl]-6,7-dihydro-5H-cyclopenta[c]pyridin-5-yl-]-N-methyl-acetamide]
EC50 (human CYP11B1): 6 µM
EC50 (CYP11B2): 0.213 µM

SMILES: CC(C)N(C)C(=O)CC1CCc2cncc(-c3ccc(C(F)(F)F)cc3F)c21 (racemic) [Example 21, (rac)-2-[4-[2-Fluoro-4-(trifluoromethyl)phenyl]-6,7-dihydro-5H-cyclopenta[c]pyridin-5-yl]-N-isopropyl-N-methyl-acetamide]
EC50 (human CYP11B1): 8.36 µM
EC50 (CYP11B2): 0.413 µM

SMILES: CN(C(=O)CC1CCc2cncc(-c3ccc(C(F)(F)F)cc3F)c21)C1CC1 (racemic) [Example 22, (rac)-N-Cyclopropyl-2-[4-[2-fluoro-4-(trifluoromethyl)phenyl]-6,7-dihydro-5H-cyclopenta[c]pyridin-5-yl-]-N-methyl-acetamide]
EC50 (human CYP11B1): 9.44 µM
EC50 (CYP11B2): 0.957 µM

SMILES: CCN(C(=O)CC1CCc2cncc(-c3ccc(C(F)(F)F)cc3F)c21)C1CC1 (racemic) [Example 23, (rac)-N-Cyclopropyl-N-ethyl-2-[4-[2-fluoro-4-(trifluoromethyl)phenyl]-6,7-dihydro-5H-cyclopenta[c]pyridin-5-yl]acetamide]
EC50 (human CYP11B1): 8.61 µM
EC50 (CYP11B2): 0.487 µM

SMILES: C[C@H]1CCCN1C(=O)CC1CCc2cncc(-c3ccc(C(F)(F)F)cc3F)c21 (mixture of isomers) [Example 24, (rac)-2-[4-[2-Fluoro-4-(trifluoromethyl)phenyl]-6,7-dihydro-5H-cyclopenta[c]pyridin-5-yl]-1-[(2S)-2-methylpyrrolidin-1-yl]ethanone]
EC50 (human CYP11B1): 3.97 µM
EC50 (CYP11B2): 0.205 µM

SMILES: OC1(c2ccccc2)CCc2cncc(-c3ccc(C(F)(F)F)cc3F)c21 (single isomer, unassigned; (+)) [Example 9, (+)-4-[2-Fluoro-4-(trifluoromethyl)phenyl]-5-phenyl-6,7-dihydrocyclopenta[c]pyridin-5-ol]
EC50 (human CYP11B1): 35 µM
EC50 (CYP11B2): 0.742 µM

SMILES: OC1(c2ccccc2)CCc2cncc(-c3ccc(C(F)(F)F)cc3F)c21 (single isomer, unassigned; (-)) [Example 10, (−)-4-[2-Fluoro-4-(trifluoromethyl)phenyl]-5-phenyl-6,7-dihydrocyclopenta[c]pyridin-5-ol]
EC50 (human CYP11B1): 8.13 µM
EC50 (CYP11B2): 0.063 µM

SMILES: N#Cc1ccc([C@H]2CCCc3cncn32)cc1 [FAD286]
plasma aldosterone [1]: reduced
angiotensin II and salt-stimulated PAI-1 mRNA expression [1]: not FAD286 enhanced

SMILES: CC(=O)S[C@@H]1CC2=CC(=O)CC[C@]2(C)[C@H]2CC[C@@]3(C)[C@@H](CC[C@@]34CCC(=O)O4)[C@H]12 [spironolactone]
plasma aldosterone [1]: increased
angiotensin II and salt-stimulated PAI-1 mRNA expression [1]: enhanced

From patent US9636338B2, “Phenyl-dihydropyridine derivatives as inhibitors of aldosterone synthase” (Hoffmann-La Roche Inc., priority 2013, dated 2017)
